Experimental findings from patent publication US20220195487A1, “Method for Measuring Inhibition of Bacteria by Antibacterial Drug, and Bacterial Counting Device and Method Thereof” (BEIJING XINJI JINNUO MEDICAL EQUIPMENT CO.,LTD., priority 2019, published 2022) are described below.

Holding throughout (type): cell-based
In assay [1] the test system is Staphylococcus aureus (ATCC29213). The assay can be described thus: 24 h routine (conventional) drug susceptibility testing by visual observation.
Assay [2] has the same test system. The assay can be described thus: rapid drug susceptibility testing of living cells (live bacteria counting, 2 h). The conditions noted are these: for Living cell counts: 2 h. On the procedure: (§1) 1.2.1 Preparation of bacterial strains: in accordance with the requirements of the CLSI standards, pick each fresh strains within 24 h with a turbidity of 0.5 McFarland units in the column of strain name in Table 7.
(§2) 1.2.2 Inoculation: take 100 μL of each bacterial suspension with a turbidity of 0.5 McFarland units and dispense to a 48-well plate with pre-configured gradient antibiotics, 500 μL dispensed in each well.
(§3) 1.2.3 Incubation and detection: incubate for 2 h at 37° C., and perform live bacteria counting. Record the 24 h routine susceptibility results for comparative analysis.

Assay [3] has the same test system. The assay can be described thus: 2 h susceptibility by resistance bacterial counter. The settings on record: Example 3, resistance counting, 2 h at 37° C., 60% of the positive count value as threshold. On the procedure: (§4) 2.2.1 Preparation of bacterial strains: In accordance with the requirements of the CLSI standards, pick each fresh strains within 24 h with a turbidity of 0.5 McFarland units in the column of strain name in Table 5;
(§5) 2.2.2 Inoculation: Take 100 μL of each bacterial suspension with a turbidity of 0.5 McFarland units and dispense to a 48-well plate with pre-configured gradient antibiotics, 500 μL dispensed in each well;
(§6) 2.2.3 Incubation and detection: Incubate for 2 h at 37° C., and measure with a resistance bacterial counter. Adjust the instrument to its best sensitivity and then count bacteria. Record the 24 h routine susceptibility results for comparative analysis.

For assay [4], the system named is Pseudomonas aeruginosa (ATCC27853). The assay can be described thus: 24 h routine (conventional) drug susceptibility testing by visual observation.
The test system is the same in assay [5]. The assay can be described thus: rapid drug susceptibility testing of living cells (live bacteria counting, 2 h). The conditions noted are these: for Living cell counts: 2 h. On the procedure:
as §1, §2, §3

The test system is the same in assay [6]. The assay can be described thus: 2 h susceptibility by resistance bacterial counter. The conditions noted are these: Example 3, resistance counting, 2 h at 37° C., 60% of the positive count value as threshold. On the procedure: as §4, §5, §6
The mark [7] stands for this setting: Example 3, 24 h routine susceptibility.
Where [8] appears, read: Example 4, 24 h routine susceptibility.
Setting [9] is: Example 4, live bacteria counting, 2 h at 37° C.

Converted amounts (≈) assume the structure as drawn.

In the case of `CC[C@H]1OC(=O)[C@H](C)[C@@H](O[C@H]2C[C@@](C)(OC)[C@@H](O)[C@H](C)O2)[C@H](C)[C@@H](O[C@@H]2O[C@H](C)C[C@H](N(C)C)[C@H]2O)[C@](C)(O)C[C@@H](C)C(=O)[C@H](C)[C@@H](O)[C@]1(C)O` [Erythromycin], in assay [1] (setting [7]), the “24 hMIC” value is reported as 0.25. This compound showed an MIC, conventional drug susceptibility testing in assay [1] (setting [8]) of 0.25 µg/mL (≈ 0.341 µM). The Living cell counts in assay [2] (0.03 μg/mL) turned out to be 5107 cells/μL; in assay [2] (0.06 μg/mL), 5078 cells/μL; in assay [2] (0.12 μg/mL), 3980 cells/μL; in assay [2] (0.25 μg/mL) it was 889 cells/μL; in assay [2] (0.5 μg/mL), 609 cells/μL; in assay [2] (1 μg/mL) it was 598 cells/μL. Besides, the Living cell counts in assay [2] (2 μg/mL) stood at 498 cells/μL; in assay [2] (4 μg/mL), 460 cells/μL; in assay [2] (8 μg/mL), 446 cells/μL; in assay [2] (16 μg/mL), 457 cells/μL. The MIC, rapid drug susceptibility testing of living cells in assay [2] (setting [9]) came to 0.25 µg/mL. The “2 hMIC” value in assay [3] came out at 0.5.

In the case of `CC(C)(O/N=C(\C(=O)N[C@@H]1C(=O)N2C(C(=O)[O-])=C(C[n+]3ccccc3)CS[C@H]12)c1csc(N)n1)C(=O)O` [Ceftazidime], the “24 hMIC” value in assay [4] (setting [7]) stood at 2. In assay [4] (setting [8]), this compound displayed an MIC, conventional drug susceptibility testing of 2 µg/mL (≈ 3.66 µM). Besides, the Living cell counts in assay [5] (0.03 μg/mL) stood at 1509 cells/μL; in assay [5] (0.06 μg/mL), 1478 cells/μL; in assay [5] (0.12 μg/mL) it was 1513 cells/μL; in assay [5] (0.25 μg/mL) it was 1480 cells/μL; in assay [5] (0.5 μg/mL), 1235 cells/μL; in assay [5] (1 μg/mL), 1090 cells/μL. Besides, the Living cell counts in assay [5] (2 μg/mL) amounted to 308 cells/μL; in assay [5] (4 μg/mL), 297 cells/μL; in assay [5] (8 μg/mL), 202 cells/μL; in assay [5] (16 μg/mL), 209 cells/μL. For the same compound, in assay [5] (setting [9]), the MIC, rapid drug susceptibility testing of living cells was 2 µg/mL. In addition, the “2 hMIC” value in assay [6] came out at 4.
